Laboratory results: US12202815B2, “Selective androgen receptor degrader (SARD) ligands and methods of use thereof” (priority 2018, dated 2025)
Values joined by “and” are separate entries in the source; they are usually repeats but may differ in a detail not shown here. Identical values can stand only once. “Also recorded” adds a separate entry of the source. Like-named read-outs stand apart in the source and are kept apart here.

Assays:
[1] = test system: >450 human kinases and mutant variants; assay: KINOMEscan panel cross-reactivity profile; format: binding; conditions: panel of >460 kinases and mutants
Protocol: (§1) Screening “hits” are identified by measuring the amount of kinase captured in test versus control samples by using a quantitative, precise and ultra-sensitive qPCR method that detects the associated DNA label.
(§2) For most assays, kinase-tagged T7 phage strains were grown in parallel in 24-well blocks in an E. coli host derived from the BL21 strain. […] The lysates were centrifuged (6,000×g) and filtered (0.2 μm) to remove cell debris. The remaining kinases were produced in HEK-293 cells and subsequently tagged with DNA for qPCR detection. […] The liganded beads were blocked with excess biotin and washed with blocking buffer (SeaBlock (Pierce), 1% BSA, 0.05% Tween 20, 1 mM DTT) to remove unbound ligand and to reduce non-specific phage binding. […] Test compounds were prepared as 40× stocks in 100% DMSO and directly diluted into the assay. All reactions were performed in polypropylene 384-well plates in a final volume of 0.02 ml. […] The kinase concentration in the eluates was measured by qPCR.

[2] = for Conc. 1065: individual rat serum
[3] = High dose Hershberger experiment, 7 days oral; format: in vivo, Sprague Dawley rat; conditions: for Body wt. on sac. day / Day 0 body wt.: individual animals
Protocol: Body weights were recorded on day 0 and day 7 (Table 4B). On day 7, animals were sacrificed and organs were observed.

in vivo = conditions: male, Sprague Dawley, rat, 20 mpk
[4] = test system: MDVR (enzalutamide-resistant VCaP prostate cancer cells); assay: MDVR xenograft in SRG rats, 30 days oral dosing; conditions: rat, in vivo
Protocol: Male Sprague Dawley Rag2−/−; Il2rg−/− (SRG) rats were housed in group of three rats/cage. They were provided with food and water ad libitum and were maintained in a 12 hour light/dark cycle.
Cell inoculations were carried out in a Class II/A2 biosafety cabinet. The surgical space was cleaned with Clidox® and sterile drapes were placed on the surface. The animals were anesthetized using inhaled isoflurane. Prior to injection, the hind flank was shaved and cleaned with alcohol prep pads. Animals were placed back in their home cage and monitored until they recovered and sternal recumbency was observed.
Cell inoculation: All animals were inoculated with a total volume of 500 μL subcutaneously in the left hind flank. The inoculation suspension consisted of 250 μL of cell suspension mixed with 250 μL of Matrigel, diluted to 10 mg/mL working solution with DMEM, which was mixed on ice immediately by pipetting the cells into the Matrigel using a p1000 micropipette fitted with a sterile aerosol resistant tip prior to injection. The final concentration of Matrigel was 5 mg/mL. […] Each needle/syringe was used for only 1 animal.
SARDs were dissolved at 5-, 10-, or 15 mg/mL in vehicle in a biosafety cabinet using sterile reagents and consumables.
One-way ANOVA and Tukey's post-hoc test were used to compare the difference in percent change in body weight among treatment groups. […]

[5] = Pharmacokinetics in male Sprague Dawley rats (oral 7 days, iv Day 1); conditions: male, Sprague Dawley, rat, in vivo
Protocol: At initial dosing, the animals were 12 weeks of age. The animals were group housed (up to three animals/cage/group) in polycarbonate cages with hardwood chip bedding. […] Water was provided fresh daily, ad libitum. […] As necessary, the 12-hour dark cycle was interrupted to accommodate study procedures. […] Individual doses were calculated based on body weights recorded on Day 1 and Day 7 of dose administration. […] A single intravenous dose was administered via a tail vein and blood sample on Day 1.
Animals were weighed at the time of animal selection and on Day 1 and Day 7 of dose administration.
Centrifugation began within 1 hour of collection. Plasma was placed into 96-well tubes with barcode labels. Plasma was maintained on dry ice prior to storage at approximately −70° C. Drug concentrations were measured by established chromatography/mass spectrometry (LC-MS/MS) methods.

>160 GPCR's = assay: gpcrMAX panel, PathHunter beta-arrestin antagonist primary screen; format: cell-based
Protocol: The assays were performed utilizing the PathHunter beta-arrestin enzyme fragment complementation (EFC) technology.
The PathHunter® β-Arrestin assay monitors the activation of a GPCR in a homogenous, non-imaging assay format using a technology developed by DiscoveRx called Enzyme Fragment Complementation (EFC) with β-galactosidase (β-Gal) as the functional reporter. […] EA is fused to β-Arrestin and ED is fused to the GPCR of interest. When the GPCR is activated and β-Arrestin is recruited to the receptor, ED and EA complementation occurs, restoring β-Gal activity which is measured using chemiluminescent PathHunter® Detection Reagents.
PathHunter cell lines were expanded from freezer. Cells were seeded in a total volume of 20 μL into white walled, 384-well microplates and incubated at 37° C. for the appropriate time prior to testing.
Intermediate dilution of sample stocks was performed to generate 5× sample in assay buffer. […]
Microplates were read following signal generation with a PerkinElmer Envision™ instrument for chemiluminescent signal detection.
Compound activity was analyzed using CBIS data analysis suite (ChemInnovation, CA). For antagonist mode assays, percentage inhibition was calculated using the following formula: % Inhibition=100%×(1−(mean RLU of test sample−mean RLU of vehicle control)/(mean RLU of EC80 control−mean RLU of vehicle control) [where RLU is relative light unit]).

RLM metabolism half-life = format: in vitro ADME; conditions: rat liver microsomes
Protocol: (§3) The assay was done in a final volume of 0.5 ml in duplicates (n=2). […] After pre-incubation, reaction was started by addition of 1 mM NADPH (pre-incubated at 37° C.). Incubations were carried out in triplicate and at various time-points (0, 5, 10, 15, 30 and 60 minutes) 100 μl aliquots were removed and quenched with 100 μl of acetonitrile containing internal standard. Samples were vortex mixed and centrifuged at 4000 rpm for 10 minutes. The supernatants were transferred to 96 well plates and submitted for LC-MS/MS analysis. As control, sample incubations done in absence of NADPH were included. From % PCR (% Parent Compound Remaining), rate of compound disappearance is determined (slope) and in vitro CLint (μl/min/mg protein) was calculated.

GSK3A = biological target: T1, GSK3A (Homo sapiens, UniProt P49840); assay: KINOMEscan competition binding assay; conditions: lower numbers indicate stronger hits
T1 construct: T7 phage fusion or DNA label for qPCR; purchased DiscoveRx
Protocol: as §1, §2

[6] = format: in vitro ADME; conditions: human liver microsomes
Protocol: as §3

MYLK = biological target: T2, MYLK (Homo sapiens, UniProt Q15746); assay: KINOMEscan competition binding assay; conditions: lower numbers indicate stronger hits
T2 construct: T7 phage fusion or DNA label for qPCR; purchased DiscoveRx
T2 sequence (Q15746 whole entry, the tested form may be a part): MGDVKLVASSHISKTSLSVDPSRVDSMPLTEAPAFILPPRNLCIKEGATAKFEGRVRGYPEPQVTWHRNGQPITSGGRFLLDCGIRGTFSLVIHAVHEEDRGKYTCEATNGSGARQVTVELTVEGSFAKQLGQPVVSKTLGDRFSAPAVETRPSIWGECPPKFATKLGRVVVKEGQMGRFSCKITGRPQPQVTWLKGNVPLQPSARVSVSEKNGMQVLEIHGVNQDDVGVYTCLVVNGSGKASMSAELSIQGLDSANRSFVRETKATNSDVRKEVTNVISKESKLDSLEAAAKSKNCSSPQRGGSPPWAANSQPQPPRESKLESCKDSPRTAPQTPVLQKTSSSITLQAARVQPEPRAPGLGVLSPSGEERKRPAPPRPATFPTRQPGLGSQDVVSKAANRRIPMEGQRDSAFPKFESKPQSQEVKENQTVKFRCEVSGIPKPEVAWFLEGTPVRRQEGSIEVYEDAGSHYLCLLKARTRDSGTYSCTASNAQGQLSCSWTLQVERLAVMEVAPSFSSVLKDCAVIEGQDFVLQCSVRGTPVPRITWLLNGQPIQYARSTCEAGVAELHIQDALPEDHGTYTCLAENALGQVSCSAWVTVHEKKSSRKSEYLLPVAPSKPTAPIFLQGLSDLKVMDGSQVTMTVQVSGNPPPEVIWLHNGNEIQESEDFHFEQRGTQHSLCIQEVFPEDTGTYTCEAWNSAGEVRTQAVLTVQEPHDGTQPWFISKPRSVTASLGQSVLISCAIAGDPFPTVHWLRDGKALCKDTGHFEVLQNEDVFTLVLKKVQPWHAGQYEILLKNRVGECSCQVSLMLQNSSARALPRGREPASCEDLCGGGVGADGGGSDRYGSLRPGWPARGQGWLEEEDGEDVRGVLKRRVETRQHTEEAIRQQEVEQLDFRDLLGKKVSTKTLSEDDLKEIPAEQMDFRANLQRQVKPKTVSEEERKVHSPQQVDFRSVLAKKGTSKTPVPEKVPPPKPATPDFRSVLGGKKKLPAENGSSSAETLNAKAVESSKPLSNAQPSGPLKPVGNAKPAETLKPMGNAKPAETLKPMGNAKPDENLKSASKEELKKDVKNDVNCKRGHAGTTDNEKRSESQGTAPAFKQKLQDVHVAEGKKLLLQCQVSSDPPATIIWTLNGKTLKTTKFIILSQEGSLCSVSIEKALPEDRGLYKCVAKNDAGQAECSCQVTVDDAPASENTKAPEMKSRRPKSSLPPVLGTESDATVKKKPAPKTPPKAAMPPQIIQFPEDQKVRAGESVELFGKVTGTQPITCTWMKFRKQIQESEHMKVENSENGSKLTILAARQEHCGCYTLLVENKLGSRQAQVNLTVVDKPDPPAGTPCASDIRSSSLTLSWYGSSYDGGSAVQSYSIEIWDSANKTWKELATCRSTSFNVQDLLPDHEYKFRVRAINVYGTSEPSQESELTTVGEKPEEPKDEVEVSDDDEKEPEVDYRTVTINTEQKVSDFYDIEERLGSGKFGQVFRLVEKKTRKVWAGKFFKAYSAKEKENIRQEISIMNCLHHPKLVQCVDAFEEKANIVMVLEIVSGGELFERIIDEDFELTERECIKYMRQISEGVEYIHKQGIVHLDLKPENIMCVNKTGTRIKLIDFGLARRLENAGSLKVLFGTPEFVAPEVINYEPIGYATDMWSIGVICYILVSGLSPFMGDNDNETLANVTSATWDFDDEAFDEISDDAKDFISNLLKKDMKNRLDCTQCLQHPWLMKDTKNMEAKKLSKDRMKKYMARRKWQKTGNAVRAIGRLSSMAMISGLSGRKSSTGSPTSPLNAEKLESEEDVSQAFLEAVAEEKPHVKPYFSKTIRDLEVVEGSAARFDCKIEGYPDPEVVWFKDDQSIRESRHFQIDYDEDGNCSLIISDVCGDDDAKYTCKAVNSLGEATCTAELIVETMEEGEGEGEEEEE
Protocol: as §1, §2

T1 sequence (P49840 whole entry, the tested form may be a part): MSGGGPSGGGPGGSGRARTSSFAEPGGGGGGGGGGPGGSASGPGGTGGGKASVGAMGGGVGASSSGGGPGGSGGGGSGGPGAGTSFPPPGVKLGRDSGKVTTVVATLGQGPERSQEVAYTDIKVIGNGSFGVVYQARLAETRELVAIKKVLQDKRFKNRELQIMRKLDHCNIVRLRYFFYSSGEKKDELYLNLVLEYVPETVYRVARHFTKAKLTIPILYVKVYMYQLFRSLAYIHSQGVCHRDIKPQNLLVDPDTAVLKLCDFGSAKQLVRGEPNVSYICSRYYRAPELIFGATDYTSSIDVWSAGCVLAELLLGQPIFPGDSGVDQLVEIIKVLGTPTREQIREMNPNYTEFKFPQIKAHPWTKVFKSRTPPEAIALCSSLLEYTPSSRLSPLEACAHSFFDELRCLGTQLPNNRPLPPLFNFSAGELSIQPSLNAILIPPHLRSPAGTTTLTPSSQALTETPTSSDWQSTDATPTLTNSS

For `C[C@](O)(Cn1cc(C#N)cn1)C(=O)Nc1cnc(C#N)c(C(F)(F)F)c1` [Compound 1065, (S)-3-(4-cyano-1H-pyrazol-1-yl)-N-(6-cyano-5-(trifluoromethyl)pyridin-3-yl)-2-hydroxy-2-methylpropanamide], the “number of kinases bound (<50% of Percent of Control)” value [1] was 2, the “Conc. 1065” value ([2]; 1 mg/kg) was 81.58 nM and 87.25 nM and 120.1244 nM and 134.5505 nM and 129.9323 nM and the “Conc. 1065” value ([2]; 5 mg/kg) was 967.3936 nM and 798.7984 nM and 630.4879 nM and 691.1901 nM and 485.4264 nM. The “Conc. 1065” value ([2]; 10 mg/kg) was 637.641 nM and 915.1312 nM and 824.8076 nM and 681.9936 nM and 795.917 nM, the “Conc. 1065” value ([2]; 20 mg/kg) was 1286.902 nM and 1298.179 nM and 1360.687 nM and 1397.834 nM and 1193.986 nM and the “Serum Conc.” value ([2]; Table 2, rats 20 mg/kg, 24-30 hours after last dose) was 561 nM. For the same compound, the “Serum Conc.” value ([2]; Table 3, 20 mg/kg Hershberger) was 561 nM, the “serum drug level (bioavailability)” value ([2]; rats dosed at 20 mg/kg) was 561 nM and the “gross pathology (in words)” value ([3]; 100 and 200 mpk, 7 days) was “no gross pathology”. For the same compound, the “Body wt. on sac. day” value ([3]; 100 mpk oral 7 days) was 475 g and 333 g and 292 g, the “Day 0 body wt.” value ([3]; 100 mpk oral 7 days) was 404 g and 280 g and 245 g and the “Body wt. on sac. day” value ([3]; 200 mpk oral 7 days) was 326 g and 313 g and 424 g. For the same compound, the “Day 0 body wt.” value ([3]; 200 mpk oral 7 days) was 270 g (2×) and 440 g, the concentration at 30 h (in vivo) was 561 nM and the “potency vs 1002 in inhibiting enzalutamide-resistant prostate cancer (in words)” value [4] was “approximately two fold more potent than 1002”. The AUC0-24 ([5]; iv, 5 mg/kg) was 31800 ng·h/mL, the AUC(0-inf) ([5]; iv, 5 mg/kg) was 40700 ng·h/mL and the AUC(0-t) ([5]; iv, 5 mg/kg) was 31800 ng·h/mL. The C0 ([5]; iv, 5 mg/kg) was 2510 ng/mL, the Cmax ([5]; iv, 5 mg/kg) was 2600 ng/mL and the “DN AUC0-24” value ([5]; iv, 5 mg/kg) was 6360. It also gave a Tmax ([5]; iv, 5 mg/kg) of 0.5 h, a Vd ([5]; iv, 5 mg/kg) of 1.86 L/kg and a clearance ([5]; iv, 5 mg/kg) of 2.05 mL/min/kg. It also gave a half-life ([5]; iv, 5 mg/kg) of 10.5 h, an AUC(0-t) ([5]; po, 1 mg/kg) of 7300 ng·h/mL and an AUC0-24 ([5]; po, 1 mg/kg/day) of 7300 ng·h/mL. For the same compound, the AUC(0-t) ([5]; po, 1 mg/kg/day) was 7300 ng·h/mL, the Cmax ([5]; po, 1 mg/kg/day) was 458 ng/mL and the “DN AUC0-24” value ([5]; po, 1 mg/kg/day) was 7300. It also gave a Tmax ([5]; po, 1 mg/kg/day) of 6 h, an AUC(0-t) ([5]; po, 5 mg/kg) of roughly 35000 ng·h/mL and an AUC0-24 ([5]; po, 5 mg/kg/day) of 34900 ng·h/mL. For the same compound, the AUC(0-t) ([5]; po, 5 mg/kg/day) was 34900 ng·h/mL, the Cmax ([5]; po, 5 mg/kg/day) was 2220 ng/mL and the “DN AUC0-24” value ([5]; po, 5 mg/kg/day) was 6980. The Tmax ([5]; po, 5 mg/kg/day) was 6 h, the AUC0-24 ([5]; po, 10 mg/kg/day) was 59500 ng·h/mL and the AUC(0-t) ([5]; po, 10 mg/kg/day) was 59500 ng·h/mL. The Cmax ([5]; po, 10 mg/kg/day) was 3550 ng/mL, the “DN AUC0-24” value ([5]; po, 10 mg/kg/day) was 5950 and the Tmax ([5]; po, 10 mg/kg/day) was 6 h. The AUC(0-t) ([5]; po, 20 mg/kg) was 102000 ng·h/mL, the AUC0-24 ([5]; po, 20 mg/kg/day) was 102000 ng·h/mL and the AUC(0-t) ([5]; po, 20 mg/kg/day) was 102000 ng·h/mL. The Cmax ([5]; po, 20 mg/kg/day) was 5550 ng/mL, the “DN AUC0-24” value ([5]; po, 20 mg/kg/day) was 5120 and the Tmax ([5]; po, 20 mg/kg/day) was 6 h. For the same compound, the “GPCR cross-reactivity (in words)” value (>160 GPCR's) was “no GPCR was inhibited by 50%; also recorded: No GPCR was inhibited by >50%”, the “RLM Metebolism (H.L. min)” value (RLM metabolism half-life) was 84 min and the “Percent Control” value (GSK3A) was 6.4%. The “HLM Metabolism (H.L. min)” value [6] was “STABLE”, the “HLM % metabolized after 60 min” value ([6]; 60 min) was 0% and the “Percent Control” value (MYLK) was 45%.
